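Growth conditions: 96-well plates. Treatment: test compound, 48 hours, 5 concentrations. Analysis: linear interpolation between bracketing concentrations; unreached endpoints set to highest concentration. At the GI50, growth is halved. At the TGI there is no net growth.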
Assays:
Test in all cases: NCI-60 cell line screen, 48 h
OVCAR-3 ovarian = tested on: OVCAR-3 ovarian
LOX IMVI melanoma = tested on: LOX IMVI melanoma
HCT-15 colon = tested on: HCT-15 colon
786-0 renal = tested on: 786-0 renal
HOP-92 NSCLC = tested on: HOP-92 NSCLC
A498 renal = tested on: A498 renal
CCRF-CEM leukemia = tested on: CCRF-CEM leukemia
SF-539 CNS = tested on: SF-539 CNS
SF-268 CNS = tested on: SF-268 CNS
UACC-257 melanoma = tested on: UACC-257 melanoma
SF-295 CNS = tested on: SF-295 CNS
OVCAR-5 ovarian = tested on: OVCAR-5 ovarian
RPMI-8226 leukemia = tested on: RPMI-8226 leukemia
UACC-62 melanoma = tested on: UACC-62 melanoma
IGROV1 ovarian = tested on: IGROV1 ovarian
MOLT-4 leukemia = tested on: MOLT-4 leukemia
NCI-H460 lung = tested on: NCI-H460 lung
OVCAR-4 ovarian = tested on: OVCAR-4 ovarian
MDA-MB-231 breast = tested on: MDA-MB-231 breast
BT-549 breast = tested on: BT-549 breast
T-47D breast = tested on: T-47D breast
SR leukemia = tested on: SR leukemia
KM12 colon = tested on: KM12 colon
K-562 leukemia = tested on: K-562 leukemia
HS 578T breast = tested on: HS 578T breast
SK-MEL-2 melanoma = tested on: SK-MEL-2 melanoma
SK-OV-3 ovarian = tested on: SK-OV-3 ovarian
SNB-19 CNS = tested on: SNB-19 CNS
A549 NSCLC = tested on: A549 NSCLC
CAKI-1 renal = tested on: CAKI-1 renal
SK-MEL-5 melanoma = tested on: SK-MEL-5 melanoma
MALME-3M melanoma = tested on: MALME-3M melanoma
TK-10 renal = tested on: TK-10 renal
HOP-62 NSCLC = tested on: HOP-62 NSCLC
COLO 205 colon = tested on: COLO 205 colon
NCI-H226 lung = tested on: NCI-H226 lung
M14 melanoma = tested on: M14 melanoma
NCI-H522 lung = tested on: NCI-H522 lung
SNB-75 CNS = tested on: SNB-75 CNS
HCC-2998 colon = tested on: HCC-2998 colon
HL-60(TB) leukemia = tested on: HL-60(TB) leukemia
MDA-MB-435 = tested on: MDA-MB-435
ACHN renal = tested on: ACHN renal
SK-MEL-28 melanoma = tested on: SK-MEL-28 melanoma
SW-620 colon = tested on: SW-620 colon
HT29 colon = tested on: HT29 colon
NCI-H23 lung = tested on: NCI-H23 lung
OVCAR-8 ovarian = tested on: OVCAR-8 ovarian
RXF 393 renal = tested on: RXF 393 renal
DU-145 prostate = tested on: DU-145 prostate
U251 CNS = tested on: U251 CNS
UO-31 renal = tested on: UO-31 renal
HCT-116 colon = tested on: HCT-116 colon
NCI/ADR-RES ovarian = tested on: NCI/ADR-RES ovarian
EKVX NSCLC = tested on: EKVX NSCLC
MCF7 breast = tested on: MCF7 breast
SN12C renal = tested on: SN12C renal
PC-3 prostate = tested on: PC-3 prostate

COc1cc2c3c(n(CCCN)c(=O)c2cc1OC)-c1ccc(N(C)C)cc1C3=O
GI50 (OVCAR-3 ovarian): 20.4 µM | TGI (OVCAR-3 ovarian): 42.2 µM | GI50 (LOX IMVI melanoma): 2.05 µM | TGI (LOX IMVI melanoma): 4.45 µM | GI50 (HCT-15 colon): 13.9 µM | TGI (HCT-15 colon): 27.1 µM | GI50 (786-0 renal): 5.29 µM | TGI (786-0 renal): 11.8 µM | GI50 (HOP-92 NSCLC): 6.8 µM | TGI (HOP-92 NSCLC): 22.8 µM | GI50 (A498 renal): 21 µM | TGI (A498 renal): 37.2 µM | GI50 (CCRF-CEM leukemia): 1.98 µM | TGI (CCRF-CEM leukemia): 5.16 µM | GI50 (SF-539 CNS): 1.92 µM | TGI (SF-539 CNS): 3.66 µM | GI50 (SF-268 CNS): 16.1 µM | TGI (SF-268 CNS): 46.1 µM | GI50 (UACC-257 melanoma): 23.5 µM | TGI (UACC-257 melanoma): 48.3 µM | GI50 (SF-295 CNS): 17.6 µM | TGI (SF-295 CNS): 37.9 µM | GI50 (OVCAR-5 ovarian): 17 µM | TGI (OVCAR-5 ovarian): 31.4 µM | GI50 (RPMI-8226 leukemia): 2 µM | TGI (RPMI-8226 leukemia): 4.68 µM | GI50 (UACC-62 melanoma): 21.6 µM | TGI (UACC-62 melanoma): 42.2 µM | GI50 (IGROV1 ovarian): 14.8 µM | TGI (IGROV1 ovarian): 47 µM | GI50 (MOLT-4 leukemia): 7.01 µM | TGI (MOLT-4 leukemia): 19.5 µM | GI50 (NCI-H460 lung): 4.45 µM | TGI (NCI-H460 lung): 26.1 µM | GI50 (OVCAR-4 ovarian): 17.5 µM | TGI (OVCAR-4 ovarian): 33.8 µM | GI50 (MDA-MB-231 breast): 11.9 µM | TGI (MDA-MB-231 breast): 25.5 µM | GI50 (BT-549 breast): 14.5 µM | TGI (BT-549 breast): 28.8 µM | GI50 (T-47D breast): 20 µM | TGI (T-47D breast): 41 µM | GI50 (SR leukemia): 18.7 µM | TGI (SR leukemia): 74.5 µM | GI50 (KM12 colon): 2.34 µM | TGI (KM12 colon): 4.85 µM | GI50 (K-562 leukemia): 4.09 µM | TGI (K-562 leukemia): 17.4 µM | GI50 (HS 578T breast): 27.9 µM | TGI (HS 578T breast): 61.5 µM | GI50 (SK-MEL-2 melanoma): 19.6 µM | TGI (SK-MEL-2 melanoma): 38.1 µM | GI50 (SK-OV-3 ovarian): 21 µM | TGI (SK-OV-3 ovarian): 42.7 µM | GI50 (SNB-19 CNS): 16.9 µM | TGI (SNB-19 CNS): 33.7 µM | GI50 (A549 NSCLC): 18 µM | TGI (A549 NSCLC): 52 µM | GI50 (CAKI-1 renal): 22.7 µM | TGI (CAKI-1 renal): 47.5 µM | GI50 (SK-MEL-5 melanoma): 6.4 µM | TGI (SK-MEL-5 melanoma): 13.7 µM | GI50 (MALME-3M melanoma): 9.33 µM | TGI (MALME-3M melanoma): 29.9 µM | GI50 (TK-10 renal): 18.5 µM | TGI (TK-10 renal): 37.2 µM | GI50 (HOP-62 NSCLC): 16.8 µM | TGI (HOP-62 NSCLC): 31.9 µM | GI50 (COLO 205 colon): 17.4 µM | TGI (COLO 205 colon): 35.5 µM | GI50 (NCI-H226 lung): 23.9 µM | TGI (NCI-H226 lung): 49.5 µM | GI50 (M14 melanoma): 16.4 µM | TGI (M14 melanoma): 32.6 µM | GI50 (NCI-H522 lung): 17.3 µM | TGI (NCI-H522 lung): 38.1 µM | GI50 (SNB-75 CNS): 22.5 µM | TGI (SNB-75 CNS): 46 µM | GI50 (HCC-2998 colon): 3.29 µM | TGI (HCC-2998 colon): 7.68 µM | GI50 (HL-60(TB) leukemia): 21.6 µM | TGI (HL-60(TB) leukemia): 47.7 µM | GI50 (MDA-MB-435): 22.6 µM | TGI (MDA-MB-435): 46.3 µM | GI50 (ACHN renal): 17.4 µM | TGI (ACHN renal): 31.5 µM | GI50 (SK-MEL-28 melanoma): 12.3 µM | TGI (SK-MEL-28 melanoma): 27.6 µM | GI50 (SW-620 colon): 1.95 µM | TGI (SW-620 colon): 3.76 µM | GI50 (HT29 colon): 1.54 µM | TGI (HT29 colon): 2.94 µM | GI50 (NCI-H23 lung): 16.6 µM | TGI (NCI-H23 lung): 30.5 µM | GI50 (OVCAR-8 ovarian): 7.22 µM | TGI (OVCAR-8 ovarian): 33.7 µM | GI50 (RXF 393 renal): 6.53 µM | TGI (RXF 393 renal): 14.8 µM | GI50 (DU-145 prostate): 2.38 µM | TGI (DU-145 prostate): 6.6 µM | GI50 (U251 CNS): 16.5 µM | TGI (U251 CNS): 31.1 µM | GI50 (UO-31 renal): 16.9 µM | TGI (UO-31 renal): 36.1 µM | GI50 (HCT-116 colon): 2.42 µM | TGI (HCT-116 colon): 6.07 µM | GI50 (NCI/ADR-RES ovarian): 13.9 µM | TGI (NCI/ADR-RES ovarian): 43.2 µM | GI50 (EKVX NSCLC): 16.7 µM | TGI (EKVX NSCLC): 32 µM | GI50 (MCF7 breast): 14.8 µM | TGI (MCF7 breast): 36.7 µM | GI50 (SN12C renal): 16.9 µM | TGI (SN12C renal): 32 µM | GI50 (PC-3 prostate): 1.69 µM | TGI (PC-3 prostate): 3.14 µM

Source: PubChem BioAssay (NCI)
